# Laboratory results as given in article PMC6058673, “Comparison of hyaluronic acid-based micelles and polyethylene glycol-based micelles on reversal of multidrug resistance and enhanced anticancer efficacy in vitro and in vivo” (Drug Delivery, 2018).
# Where “and” joins values, the source holds several entries; their conditions need not be identical. Equal values may be shown once.
# Columns and labels:
# [1] = tested on: MCF-7/Adr cells; assay: MTT cytotoxicity assay and MDR reversal in multidrug-resistant MCF-7/Adr cells; assay type: cell-based; details: for resistant index (RI): MCF-7/Adr vs MCF-7; for IC50: Homo sapiens, NCI/ADR-RES, MCF-7/Adr, DOX concentration
# Protocol: The sensitive MCF-7 and multidrug-resistant MCF-7/Adr cells were obtained from Nanjing Kaiji Biotech. Ltd. Co. (Jiangsu, China). Cells were cultured in RPMI-1640 medium containing 10% (v/v) FBS and 1% penicillin–streptomycin at 37 °C with 5% CO2. Additionally, MCF-7/Adr cells were incubated in medium with 1 μg/mL DOX.
# The cytotoxicity of various formulations against MCF-7 and MCF-7/Adr cells was assessed by MTT assay. Briefly, MCF-7 and MCF-7/Adr cells were seeded in 96-well plates at a density of 5 × 10^4 cells/well/0.1 mL 1640 culture medium and cultured for 24 h. Then, the cells were treated with DOX-Sol, DOX + Cur, HA-PMs, TPGS2k-PMs and HA/TPGS2k-PMs with multiple concentrations of DOX for 48 and 72 h, respectively. The cells incubated with medium only were utilized as control. At time interval, 20 μL MTT (5 mg/mL) was added and incubated for another 4 h. After that, the medium of each well was discarded and added 200 μL DMSO. The absorbance of each well was measured at 570 nm using a microplate reader. Half-maximal inhibitory concentration (IC50), the resistant index (RI) and reversal factor (RF) were calculated and used to evaluate MDR reversal effects by micelles(Ling et al., [2010]; Wang et al., [2012]).
# [2] = tested on: 4T1-bearing Balb/C mice; assay: In vivo biodistribution in tumor-bearing mice; details: 4T1-bearing mice, 2 h after i.v. 10 mg DOX/kg and 10 mg Cur/kg
# Protocol: After 2 h administration, the mice were sacrificed, and the tumor, heart, liver, lung, and kidney were excised, weighed, homogenized in 0.5 mL methanol, centrifuged and analyzed by LC-MS/MS. Meanwhile, for qualitative analysis, the tumors were frozen in cryoembedding media (OCT) and sectioned at 20 μm. The sections were fixed with 4% paraformaldehyde for 10 min, stained for nuclei with DAPI, and observed by CLSM.
# [3] = tested on: 4T1 tumor-bearing mice; assay: In vivo antitumor efficacy, body weight and survival; design: species or system BALB/c mice; details: 4T1-bearing mice, i.v. 10 mg/kg DOX
# Protocol: The antitumor efficacy and safety in vivo were evaluated using 4T1 tumor-bearing mice. Briefly, 1 × 10^6 4T1 cells were subcutaneously injected into the right axilla of the female BALB/c mice. […] Body weights and tumor volumes (V = ab^2/2, where a was major axis and b was minor axis measured by slide caliper) were measured every two days after administration. At the end of the experiment, mice were sacrificed, and then the tumors were excised, weighted and photographed.
# [4] = tested on: 4T1 tumor-bearing mice; assay: Serum CK, CKMB, LDH and AST (organ toxicity) by ELISA kit; assay type: in vivo, BALB/c mice; details: 4T1-bearing mice, end of experiment; DOX-Sol vs saline, others vs DOX-Sol
# Protocol: The toxicity of DOX formulations in vivo were evaluated by enzyme-linked immunosorbent assay (ELISA) kit. At the end of the experiment, the blood of each mouse was extracted by eyeballs and the serum was separated. Then, the activities of creatine kinase (CK), creatine kinase MB (CKMB), lactate dehydrogenase (LDH) and aspartate transaminase (AST) in serum were evaluated to investigate the organ toxicity.
# [5] = In vivo pharmacokinetics after intravenous injection; details: rat, i.v., DOX 5 mg/kg and Cur 5 mg/kg, analyte DOX
# Protocol: Male Sprague–Dawley rats were randomly assigned to five groups (five rats per group). DOX-Sol, DOX + Cur, TPGS2k-PMs, HA-PMs and HA/TPGS2k-PMs were injected intravenously with at the dose of 5 mg/kg DOX and 5 mg/kg Cur, respectively. About 300 μL of blood samples were collected from the orbital venous plexus and immediately centrifuged to obtain the plasma fraction. Plasma samples were extracted through methanol protein precipitation method before analyzed by LC–MS/MS system.
structure (smiles),measurement,setting,value
"COc1cccc2c1C(=O)c1c(O)c3c(c(O)c1C2=O)C[C@@](O)(C(=O)CO)C[C@@H]3O[C@H]1C[C@H](N)[C@H](O)[C@H](C)O1 [DOX-Sol, Doxorubicin]",resistant index (RI),"[1]; 48h, listed as DOX",142 and 142.01
same,resistant index (RI),[1]; 72h,89.82
same,IC50,[1]; 48h,106 µg/mL
same,IC50,[1]; 72h,45.8 µg/mL
same,DOX accumulation in tumor,[2],low DOX accumulation
same,death of mice during treatment,[3]; 10 mice per group,five mice suddenly died after nine days treatment
same,body weight change,[3],markedly decreased
same,"values of CKMB, CK, LDH and AST in serum",[4],significantly higher than those in saline-treated groups
same,V of DOX,[5],0.03 ± 0.02 L/kg
